Data on 27 molecules can be found in ChEMBL document CHEMBL1201862, “PubChem BioAssay data set” (2004).

Calls of active or inactive are those of the source. Some results are limits rather than exact numbers.

Broadly, the AC50 is the midpoint of the concentration-response curve, whichever way the signal moves.

For assay [1], the target named is T1, Corticotropin-releasing factor receptor 2/Corticotropin-releasing factor-binding protein (Homo sapiens, UniProt P24387+Q13324).
T1 sequence (Q13324 whole entry): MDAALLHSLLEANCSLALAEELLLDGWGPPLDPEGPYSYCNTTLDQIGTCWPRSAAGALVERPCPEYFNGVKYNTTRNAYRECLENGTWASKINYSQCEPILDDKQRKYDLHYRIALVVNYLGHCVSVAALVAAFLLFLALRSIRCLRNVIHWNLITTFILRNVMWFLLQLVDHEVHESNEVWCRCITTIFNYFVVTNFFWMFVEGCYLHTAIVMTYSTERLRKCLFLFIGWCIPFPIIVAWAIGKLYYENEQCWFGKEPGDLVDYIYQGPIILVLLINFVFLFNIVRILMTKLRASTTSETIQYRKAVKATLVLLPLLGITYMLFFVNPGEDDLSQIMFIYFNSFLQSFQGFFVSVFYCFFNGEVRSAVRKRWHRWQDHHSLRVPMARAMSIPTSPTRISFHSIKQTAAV
T1 sequence (P24387 whole entry): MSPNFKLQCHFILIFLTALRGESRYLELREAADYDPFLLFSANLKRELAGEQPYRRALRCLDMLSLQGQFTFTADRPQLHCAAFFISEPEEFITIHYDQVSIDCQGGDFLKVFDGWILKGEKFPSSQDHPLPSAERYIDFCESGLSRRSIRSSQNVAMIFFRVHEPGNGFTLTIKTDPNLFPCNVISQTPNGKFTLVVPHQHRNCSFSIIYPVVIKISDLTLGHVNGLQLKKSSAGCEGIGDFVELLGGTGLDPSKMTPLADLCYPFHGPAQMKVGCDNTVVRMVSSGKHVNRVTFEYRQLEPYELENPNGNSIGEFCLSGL
In words: Dose Response confirmation of uHTS hits for small molecule antagonists of the CRF-binding protein and CRF-R2 receptor complex. The assay is classed as functional. To be noted: read-out: IC50_Mean.

The target in assay [2] is T1, Corticotropin-releasing factor receptor 2/Corticotropin-releasing factor-binding protein. In words: activators of CRF receptor 2 with binding protein – uHTS hits, confirmation (AID 602473). The assay is classed as functional. To be noted: read-out: EC50_Mean.
A further assay has as its system H4. Briefly: Luminescence Cell-Based Dose Response HTS to Identify Activators of 5'UTR Stem-Loop Driven Prion Protein mRNA Translation in H4 Neuroglioblastoma Cells. [Related pubchem assays: 1829 (Project Summary), 1814 (Primary HTS)]. The assay is classed as functional. To be noted: Homo sapiens.
Assay [3] is described as follows: Luminescence Cell-Based Dose Confirmation HTS to Identify Activators of 5'UTR Stem-Loop Driven Alpha-Synuclein mRNA Translation in H4 Neuroglioblastoma Cells. [Related pubchem assays: 1829 (Project Summary), 1814 (Primary HTS)]. The assay is classed as functional.
A short description of assay [4]: Luminescence Cell-Based Dose Response HTS to Identify Activators of Luciferase Translation or Activity in H4 […] Cells. [Related pubchem assays: 1829 (Project Summary), 1814 (Primary HTS)]. The assay is classed as functional.
The target of the next assay is Cytochrome P450 2C9 (Homo sapiens, UniProt P11712).
Cytochrome P450 2C9, sequence (P11712 whole entry): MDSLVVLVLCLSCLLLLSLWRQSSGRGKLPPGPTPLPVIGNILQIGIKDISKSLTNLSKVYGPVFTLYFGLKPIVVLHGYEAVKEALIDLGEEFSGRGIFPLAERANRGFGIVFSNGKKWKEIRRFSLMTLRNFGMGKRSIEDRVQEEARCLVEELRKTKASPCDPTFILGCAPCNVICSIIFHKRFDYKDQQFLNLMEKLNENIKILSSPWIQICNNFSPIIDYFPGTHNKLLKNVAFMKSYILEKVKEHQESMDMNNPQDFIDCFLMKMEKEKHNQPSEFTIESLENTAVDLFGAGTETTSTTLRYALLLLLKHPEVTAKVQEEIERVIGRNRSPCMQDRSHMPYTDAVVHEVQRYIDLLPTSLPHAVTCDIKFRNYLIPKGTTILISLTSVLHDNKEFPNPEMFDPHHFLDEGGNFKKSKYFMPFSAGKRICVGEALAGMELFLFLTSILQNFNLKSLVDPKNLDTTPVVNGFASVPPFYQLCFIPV
A further assay deals with T2, Protein RecA (Mycobacterium tuberculosis, UniProt P9WHJ3).
T2 sequence (P9WHJ3 whole entry): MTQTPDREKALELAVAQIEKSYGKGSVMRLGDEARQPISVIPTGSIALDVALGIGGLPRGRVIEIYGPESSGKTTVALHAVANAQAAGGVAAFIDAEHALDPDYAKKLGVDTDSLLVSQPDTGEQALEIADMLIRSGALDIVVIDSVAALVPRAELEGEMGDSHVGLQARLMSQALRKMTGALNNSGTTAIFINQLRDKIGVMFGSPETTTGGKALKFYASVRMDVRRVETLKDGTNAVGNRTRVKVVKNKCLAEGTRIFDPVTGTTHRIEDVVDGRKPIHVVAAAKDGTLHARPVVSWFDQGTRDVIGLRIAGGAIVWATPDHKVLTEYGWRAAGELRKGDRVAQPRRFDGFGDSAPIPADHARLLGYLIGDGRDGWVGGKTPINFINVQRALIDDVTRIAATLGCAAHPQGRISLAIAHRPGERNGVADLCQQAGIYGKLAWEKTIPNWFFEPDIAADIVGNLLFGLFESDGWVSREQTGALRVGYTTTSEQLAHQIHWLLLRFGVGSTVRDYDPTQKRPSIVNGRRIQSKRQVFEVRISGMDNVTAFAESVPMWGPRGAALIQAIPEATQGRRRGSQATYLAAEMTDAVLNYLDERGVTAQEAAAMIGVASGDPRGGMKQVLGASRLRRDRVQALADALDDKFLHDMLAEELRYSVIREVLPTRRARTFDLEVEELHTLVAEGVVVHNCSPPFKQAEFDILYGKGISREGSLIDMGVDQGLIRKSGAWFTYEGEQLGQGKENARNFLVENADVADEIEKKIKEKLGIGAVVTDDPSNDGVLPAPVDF
Briefly: Fluorescence Cell-Free Homogeneous Dose Retest to Identify Inhibitors of RecA-Intein Splicing Activity. [Related pubchem assays (depositor defined):AID2097, AID2223, AID489010, AID492950]. Format: functional.

The target of another assay is Cytochrome P450 2C19 (Homo sapiens, UniProt P33261). Briefly: Cytochrome panel assay with activity outcomes. Panel member name: p450-cyp2c19 Compounds with AC50 equal or less than 10 uM are considered active. The conditions noted are these: read-out: AC50. Format: functional.
Cytochrome P450 2C19, sequence (P33261 whole entry): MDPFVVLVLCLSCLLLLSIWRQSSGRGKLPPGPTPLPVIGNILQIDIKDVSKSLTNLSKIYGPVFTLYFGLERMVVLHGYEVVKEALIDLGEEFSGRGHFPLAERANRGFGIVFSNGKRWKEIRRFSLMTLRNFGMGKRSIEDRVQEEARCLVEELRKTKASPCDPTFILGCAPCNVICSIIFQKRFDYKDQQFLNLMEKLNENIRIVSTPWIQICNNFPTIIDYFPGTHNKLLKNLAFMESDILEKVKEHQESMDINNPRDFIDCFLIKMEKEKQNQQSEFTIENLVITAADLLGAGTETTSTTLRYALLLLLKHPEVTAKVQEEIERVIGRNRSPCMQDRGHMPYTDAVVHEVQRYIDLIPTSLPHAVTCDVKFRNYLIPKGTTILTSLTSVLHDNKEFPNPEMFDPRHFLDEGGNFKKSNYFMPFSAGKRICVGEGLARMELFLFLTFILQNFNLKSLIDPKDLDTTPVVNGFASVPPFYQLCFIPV
Assay [5] addresses T3, Replicative DNA helicase DnaB (Mycobacterium tuberculosis, UniProt P9WMR3).
T3 sequence (P9WMR3 whole entry): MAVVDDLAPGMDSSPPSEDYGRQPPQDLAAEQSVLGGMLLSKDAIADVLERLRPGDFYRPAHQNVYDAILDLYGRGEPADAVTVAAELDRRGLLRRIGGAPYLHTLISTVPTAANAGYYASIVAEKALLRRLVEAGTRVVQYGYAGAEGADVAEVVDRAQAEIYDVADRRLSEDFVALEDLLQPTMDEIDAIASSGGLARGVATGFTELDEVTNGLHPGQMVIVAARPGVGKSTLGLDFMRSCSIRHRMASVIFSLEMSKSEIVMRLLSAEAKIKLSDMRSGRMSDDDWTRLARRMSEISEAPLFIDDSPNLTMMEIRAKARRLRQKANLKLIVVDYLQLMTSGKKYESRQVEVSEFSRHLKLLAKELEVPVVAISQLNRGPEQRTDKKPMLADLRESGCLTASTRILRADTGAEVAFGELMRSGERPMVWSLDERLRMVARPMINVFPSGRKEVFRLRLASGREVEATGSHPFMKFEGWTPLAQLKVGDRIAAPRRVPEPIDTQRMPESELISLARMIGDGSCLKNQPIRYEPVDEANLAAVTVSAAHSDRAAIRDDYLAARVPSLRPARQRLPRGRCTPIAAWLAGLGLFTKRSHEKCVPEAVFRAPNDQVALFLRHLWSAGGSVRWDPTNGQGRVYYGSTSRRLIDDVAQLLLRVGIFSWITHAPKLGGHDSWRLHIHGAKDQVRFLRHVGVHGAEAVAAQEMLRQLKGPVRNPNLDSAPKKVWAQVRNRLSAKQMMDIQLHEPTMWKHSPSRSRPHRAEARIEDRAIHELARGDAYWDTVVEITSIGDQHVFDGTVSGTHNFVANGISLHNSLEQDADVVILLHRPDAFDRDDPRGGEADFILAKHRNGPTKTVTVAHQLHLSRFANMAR
In words: DnaB intein splicing inhibitors, dose response, biochemical, cell-free fluorescence (AID 449749). The assay is classed as functional.

The nature of assay [6]: Luminescence Cell-Based Dose Retest to Confirm Inhibitors of Cancer Stem Cells. [Related pubchem assays (depositor defined):AID2717, AID2721]. Format: functional. The conditions noted are these: Homo sapiens.

As for `COC(=O)c1ccc(Cc2ccccc2)o1`, in assay [1], the IC50 is > 47.1 µM (inactive). The EC50 in assay [2] is > 53 µM (inactive).
In the case of `COC(=O)c1ccc(S(=O)(=O)N2CCc3ccccc32)cc1`, the results for the EC50 (in the assay with H4; in assay [3]; in [4]) were > 120 µM (not active), > 120 µM (not active) and > 60 µM (not active), respectively.
Turning to `CCOC(=O)c1nnn(CC(=O)N2N=C(c3ccccc3)CC2c2ccccc2)c1C(=O)OCC` (stereo not given), the IC50 in assay [1] is > 47.1 µM (inactive). The EC50 in assay [2] is > 53 µM (inactive).
As for `O=[N+]([O-])C(/C=C(\Cl)[N+](=O)[O-])=C1N(Cc2ccc(Cl)nc2)CCN1Cc1ccc(Cl)nc1`, the AC50 is 12.6 µM (inconclusive) on Cytochrome P450 2C9, 31.6 µM (inconclusive) at Cytochrome P450 2C19 and 11.4 µM (active) in [5]. On Protein RecA, the EC50 is 8.49 µM (active).
For `COCCn1c(-c2ccsc2)nc2c1c(=O)[nH]c(=O)n2CC(C)C`, the IC50 in assay [1] was > 47.1 µM (inactive). Also, the EC50 in assay [2] is > 53 µM (inactive).
In the case of `COc1ccc(OCc2cc(C(=O)N3CCCC(OC)C3)no2)c2ccccc12` (stereo not given), on Protein RecA, the EC50 is 3.9 µM (active). Also, the AC50 in [5] is 15 µM (active).
`Cc1cccc(-n2c(N)c(C(=O)NCCN3CCOCC3)c3nc4ccccc4nc32)c1`: the EC50 (in the assay on H4; in assay [3]; in assay [4]) was > 120 µM (not active) each time.
Take `CC(=O)c1c(C)[nH]c(C(=O)CSc2ccc(F)cc2)c1C`: the EC50 in the assay on H4 is 71.1 µM (active); in assay [3], 20 µM (active); in assay [4], 30.2 µM (active).
As for `N#Cc1cc2cc3c(cc2nc1N1CCCCC1)OCCO3`, the EC50 in the assay on H4 was 1.42 µM (active); in assay [3], 0.139 µM (active); in assay [4], 1.82 µM (active).
With `Cc1nn(-c2ccc(N3CCCCC3)nn2)c(C)c1CCC(=O)Nc1cccc(F)c1`, the EC50 is 20.8 µM (active) in assay [3] and 2.66 µM (active) in [4].
For `O=C(Oc1ccccc1N1C(=O)CCC1=O)c1ccco1`, the EC50 at Protein RecA is 14.8 µM (active). Further, in [5], the half-maximal activity concentration (AC50) was 6.7 µM (active).
Regarding `CCOC(=O)c1c(C)sc2c1N(C(=O)CCl)c1cc(Cl)ccc1S2`, the EC50 at Protein RecA was 0.506 µM (active). The AC50 in assay [5] was 3.1 µM (active); in [6] it was 2.22 µM (active).
In the case of `CN1CCc2nc(SCC(=O)OC(C)(C)C)c(C#N)cc2C1`, the EC50 with H4 is 108 µM (active); in [3], 20.8 µM (active); in assay [4] it was 15.4 µM (active).
For `CC1=C(C(=O)OCc2ccccc2)C(/C=C/c2ccccc2)N2C(=O)CCSC2=N1` (stereo not given), the IC50 in assay [1] is > 47.1 µM (inactive). The EC50 in [2] is > 53 µM (inactive).
On to `CCCCN1CC(=O)C(c2nc3ccccc3s2)=C1N`, for which the figures for the EC50 (in the assay with H4; in assay [3]; in assay [4]) were > 120 µM (not active), 13.8 µM (active) and 30.8 µM (active), respectively.
Consider `C=CCNc1nc(-c2ccc(OC)cc2OC)cs1`, for which the EC50 with H4 is 53.9 µM (active); in assay [3], 0.287 µM (active); in assay [4], 26.8 µM (active).
Taken in the same sequence, the figures for `COc1ccc(/C=C2\SC(=S)N(Cc3cccnc3)C2=O)cc1C` were 20.1 µM (active), 38 µM (active) and 11.1 µM (active).
Taken in the same sequence, the figures for `Cc1ccc(C(=O)C2=C(O)C(=O)N(Cc3cccnc3)C2c2ccccc2[N+](=O)[O-])cc1` (stereo not given) were > 120 µM (not active), 30.1 µM (active) and 14.9 µM (active).
Consider `CCCCNc1nc(CC)c2c(c1C#N)CCCC2`, for which, in [1], the IC50 was > 47.1 µM (inactive). Besides, the EC50 in [2] is > 53 µM (inactive).
The like results for `Cc1ccc(C(=O)COC(=O)CCN2C(=O)C3C4C=CC(C5CC45)C3C2=O)cc1` (stereo not given) were, in that order, > 47.1 µM (inactive) and > 53 µM (inactive).
With `Cc1cn(CCC(=O)Nc2ccc(N3CCOCC3)cc2)c2ccccc12`, the results for the EC50 (in the assay with H4; in assay [3]; in [4]) were 13.9 µM (active), 11.5 µM (active) and 16.1 µM (active), respectively.
For the molecule `Fc1cccc2sc(Nc3nc4ccccc4s3)nc12`, the EC50 is 1.58 µM (active) in the assay on H4, 0.106 µM (active) in assay [3] and 4.21 µM (active) in [4].
On to `CCOC(=O)c1cccc(NS(=O)(=O)Cc2ccccc2)c1`, for which the IC50 in [1] is > 47.1 µM (inactive). Also, the EC50 in [2] was > 53 µM (inactive).
Taken in the same sequence, the figures for `CC1CCCC(C)N1C(=O)COC(=O)c1cccs1` (stereo not given) were > 47.1 µM (inactive) and > 53 µM (inactive).
For the molecule `CC(=O)C12CC(C)=C(C)CC1CC1C3CCC4=CC(=O)CCC4(C)C3CCC12C` (stereo not given), the EC50 at Protein RecA was 289 µM (inconclusive). In addition, the AC50 is 3.05 µM (active) in assay [5] and 5.78 µM (active) in [6].
As for `COC(=O)c1ccc2nc3c(cc2c1)[C@@H]1CCN2C(=O)CCC[C@H](C3)[C@H]12`, the IC50 in assay [1] was > 47.1 µM (inactive). Also, the EC50 in [2] is > 53 µM (inactive).
Take `C/C(=N/OCC(=O)Nc1ccccc1)c1cccs1`: the EC50 in the assay with H4 was 16.8 µM (active); in assay [3] it was 13.4 µM (active); in assay [4] it was 26.4 µM (active).
